System: 883617-216-R-J1-PDC tumor spheroids, viability
Assay: Anticancer human tumor 883617-216-R-J1-PDC patient-derived bladder carcinoma cell line growth inhibition [PI3K]
Details: spheroids with HUVEC and MSC; for IC50: curve of first compound; for viability, T/C: stronger effect = lower value; active means viability on the fitted dose curve at most 10% of control; inactive means the rest
Method in brief: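 Three cell types, namely tumor cells, endothelial cells and mesenchymal stem cells, formed each spheroid. Combinations with four PI3K inhibitors were screened at clinically achievable concentrations decreasing by half-log, and spheroid viability was recorded.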
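Further: spheroids exposed to agents for 7 days before the viability read.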

CCN1CCN(Cc2ccc(Nc3ncc(F)c(-c4cc(F)c5nc(C)n(C(C)C)c5c4)n3)nc2)CC1 + Cc1nc(NC(=O)N2CCCC2C(N)=O)sc1-c1ccnc(C(C)(C)C(F)(F)F)c1
active: viability, T/C (second compound 10 µM, first compound 0.00316 µM) 7.72% | viability, T/C (second compound 10 µM, first compound 0.01 µM) 5.77% | viability, T/C (second compound 10 µM, first compound 0.0316 µM) 5.3% | viability, T/C (second compound 10 µM, first compound 0.1 µM) 4.95% | viability, T/C (second compound 10 µM, first compound 0.316 µM) 5.02% | viability, T/C (second compound 10 µM, first compound 1 µM) 5.41%
26.3 nM: IC50 (second compound 0.1 µM)
inactive: viability, T/C (second compound 0.0316 µM, first compound 0.00316 µM) 75.7% | viability, T/C (second compound 0.0316 µM, first compound 0.01 µM) 64.7% | viability, T/C (second compound 0.0316 µM, first compound 0.0316 µM) 64.2% | viability, T/C (second compound 0.0316 µM, first compound 0.1 µM) 53.8% | viability, T/C (second compound 0.0316 µM, first compound 0.316 µM) 49.9% | viability, T/C (second compound 0.0316 µM, first compound 1 µM) 39.6% | viability, T/C (second compound 0.1 µM, first compound 0.00316 µM) 59.7% | viability, T/C (second compound 0.1 µM, first compound 0.01 µM) 56.3% | viability, T/C (second compound 0.1 µM, first compound 0.0316 µM) 46.4% | viability, T/C (second compound 0.1 µM, first compound 0.1 µM) 44.4% | viability, T/C (second compound 0.1 µM, first compound 0.316 µM) 44.3% | viability, T/C (second compound 0.1 µM, first compound 1 µM) 36.3% | viability, T/C (second compound 0.316 µM, first compound 0.00316 µM) 53.3% | viability, T/C (second compound 0.316 µM, first compound 0.01 µM) 39.7% | viability, T/C (second compound 0.316 µM, first compound 0.0316 µM) 37% | viability, T/C (second compound 0.316 µM, first compound 0.1 µM) 31.4% | viability, T/C (second compound 0.316 µM, first compound 0.316 µM) 26.6% | viability, T/C (second compound 0.316 µM, first compound 1 µM) 28.5% | viability, T/C (second compound 1 µM, first compound 0.00316 µM) 29.1% | viability, T/C (second compound 1 µM, first compound 0.01 µM) 25.5% | viability, T/C (second compound 1 µM, first compound 0.0316 µM) 24.1% | viability, T/C (second compound 1 µM, first compound 0.1 µM) 17.1% | viability, T/C (second compound 1 µM, first compound 0.316 µM) 21.4% | viability, T/C (second compound 1 µM, first compound 1 µM) 19.3% | viability, T/C (second compound 3.16 µM, first compound 0.00316 µM) 12.3% | viability, T/C (second compound 3.16 µM, first compound 0.01 µM) 13.7% | viability, T/C (second compound 3.16 µM, first compound 0.0316 µM) 11.8% | viability, T/C (second compound 3.16 µM, first compound 0.1 µM) 10.5% | viability, T/C (second compound 3.16 µM, first compound 0.316 µM) 14.6% | viability, T/C (second compound 3.16 µM, first compound 1 µM) 10.5%
4.15 nM: IC50 (second compound 0.316 µM)
< 3.16 nM: IC50 (second compound 1 µM) | IC50 (second compound 3.16 µM) | IC50 (second compound 10 µM)
226 nM: IC50 (second compound 0.0316 µM)

Source: PubChem BioAssay AID1963973 (Molecular Pharmacology Branch, DTP, NCI, 2024)
